Like-named read-outs stand apart in the source and are kept apart here.
Experiments:
Format in all cases: in vitro ADME
OATP1B1 = target: T1, OATP1B1 (Homo sapiens, UniProt Q9Y6L6); test: Uptake of [3-H]estrone-3-sulfate in HEK293-OATP1B1 cells
T1 construct: host or cells: HEK293 (transient overexpression)
T1 sequence (Q9Y6L6 1-691): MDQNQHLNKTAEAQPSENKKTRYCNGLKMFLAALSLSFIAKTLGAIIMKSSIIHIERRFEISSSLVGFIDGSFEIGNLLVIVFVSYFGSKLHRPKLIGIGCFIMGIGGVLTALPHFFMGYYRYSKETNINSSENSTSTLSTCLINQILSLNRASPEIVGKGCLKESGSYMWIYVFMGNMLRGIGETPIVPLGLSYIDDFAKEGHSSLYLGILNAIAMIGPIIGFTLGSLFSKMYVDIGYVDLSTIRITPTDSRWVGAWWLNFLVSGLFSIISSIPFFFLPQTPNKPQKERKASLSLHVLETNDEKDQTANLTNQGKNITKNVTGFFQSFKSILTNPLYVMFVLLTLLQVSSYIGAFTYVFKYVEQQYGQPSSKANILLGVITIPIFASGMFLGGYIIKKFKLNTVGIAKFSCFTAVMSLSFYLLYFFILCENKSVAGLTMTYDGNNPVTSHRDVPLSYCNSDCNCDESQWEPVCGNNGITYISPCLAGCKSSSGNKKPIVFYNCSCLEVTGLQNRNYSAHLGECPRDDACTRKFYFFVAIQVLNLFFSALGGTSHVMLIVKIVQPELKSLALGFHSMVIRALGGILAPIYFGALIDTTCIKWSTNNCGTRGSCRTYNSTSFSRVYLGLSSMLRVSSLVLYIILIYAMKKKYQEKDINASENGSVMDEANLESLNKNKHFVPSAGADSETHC
Description: (§1) To examine the effects of APINACA and typical inhibitors on transporter activity, the uptake of a probe substrate into HEK293 cells overexpressing the respective solute carrier transporters was measured in the presence of APINACA (final concentrations of 0–250 μM) or typical inhibitors for 5 min. The concentrations and probe substrates were selected as follows: 0.1 μM [3-H]MPP^+ (for OCT1 and OCT2), 0.1 μM [3-H]PAH (for OAT1), 0.1 μM [3-H]ES (for OAT3 and OATP1B1), and 0.1 μM [3-H]EG (for OATP1B3).
(§2) 12.5 (Systat Software, Inc.; San Jose, CA, USA). […] 1.1 (Systat Software, Inc.).

OCT1 = target: T2, OCT1 (Homo sapiens, UniProt O15245); test: Uptake of [3-H]methyl-4-phenylpyridinium in HEK293-OCT1 cells
T2 construct: host or cells: HEK293 (transient overexpression)
T2 sequence (O15245 1-554): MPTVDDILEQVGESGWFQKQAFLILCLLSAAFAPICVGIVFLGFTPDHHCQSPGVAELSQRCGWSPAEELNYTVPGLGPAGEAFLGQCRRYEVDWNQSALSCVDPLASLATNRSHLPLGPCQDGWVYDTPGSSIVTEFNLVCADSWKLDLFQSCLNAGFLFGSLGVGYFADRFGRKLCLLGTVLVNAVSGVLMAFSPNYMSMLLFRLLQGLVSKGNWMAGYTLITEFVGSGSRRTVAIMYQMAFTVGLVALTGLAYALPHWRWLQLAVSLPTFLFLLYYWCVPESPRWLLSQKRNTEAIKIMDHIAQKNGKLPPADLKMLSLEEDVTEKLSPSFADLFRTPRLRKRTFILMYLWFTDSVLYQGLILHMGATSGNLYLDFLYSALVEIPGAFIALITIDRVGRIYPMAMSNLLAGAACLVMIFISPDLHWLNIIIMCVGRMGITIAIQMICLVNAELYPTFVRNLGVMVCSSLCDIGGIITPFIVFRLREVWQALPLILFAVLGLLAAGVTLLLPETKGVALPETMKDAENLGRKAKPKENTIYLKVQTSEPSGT
Description: as §1, §2

CYP2C9 = CYP2C9 (Homo sapiens, UniProt P11712); test: Inhibition of CYP2C9-catalyzed diclofenac 4′-hydroxylase in ultrapooled human liver microsomes; details: CYP2C9 diclofenac 4′-hydroxylase
Description: The inhibitory potentials (IC50 values) of APINACA and typical CYP inhibitors on CYP 1A2, 2A6, 2C8, 2C9, 2C19, 2D6, and 3A4 activities in pooled human liver microsomes were evaluated following our previous method using a cocktail of CYP substrates, followed by LC–MS/MS [43]. […]. After 3 min of preincubation at 37 °C, the reaction mixtures were incubated for 15 min at 37 °C with the addition of NADPH in a shaking water bath. The reaction was stopped by adding 100 μL of ice cold methanol containing internal standards (d9-1′-hydroxybufuralol for 1′-hydroxybufuralol, 4′-hydroxydiclofenac, 7-hydroxycoumarin, 1′-hydroxymidazolam, and 4′-hydroxymephenytoin; ^13C2, ^15N-acetaminophen for acetaminophen and N-desethylamodiaquine). […] Aliquots (5 μL) of the diluted supernatants were analyzed by LC–MS/MS.
Next, the reaction mixtures were incubated with a seven-CYP probe substrate cocktail or bupropion for 15 min at 37 °C.
The LC-MS/MS system was comprised of an Agilent 6495 triple quadrupole mass spectrometer coupled with an Agilent 1290 Infinity system (Agilent Technologies, CA, USA). The column and autosampler temperatures were 40 °C and 4 °C, respectively.
The data were processed using Mass Hunter software (Agilent Technologies).
as §2

CYP2D6 = CYP2D6 (Homo sapiens, UniProt P10635); test: Inhibition of CYP2D6-mediated bufuralol 1′-hydroxylase in ultrapooled human liver microsomes
Description: The inhibitory potentials (IC50 values) of APINACA and typical CYP inhibitors on CYP 1A2, 2A6, 2C8, 2C9, 2C19, 2D6, and 3A4 activities in pooled human liver microsomes were evaluated following our previous method using a cocktail of CYP substrates, followed by LC–MS/MS [43]. […] After 3 min of preincubation at 37 °C, the reaction mixtures were incubated for 15 min at 37 °C with the addition of NADPH in a shaking water bath. The reaction was stopped by adding 100 μL of ice cold methanol containing internal standards (d9-1′-hydroxybufuralol for 1′-hydroxybufuralol, 4′-hydroxydiclofenac, 7-hydroxycoumarin, 1′-hydroxymidazolam, and 4′-hydroxymephenytoin; ^13C2, ^15N-acetaminophen for acetaminophen and N-desethylamodiaquine). The incubation mixtures were centrifuged at 13,000× g for 8 min at 4 °C, and 50 μL of each supernatant was diluted with 50 μL of water. Aliquots (5 μL) of the diluted supernatants were analyzed by LC–MS/MS. All assays were performed in triplicate, and the average values were used for subsequent calculations.
To measure the time-dependent inhibition, human liver microsomes were preincubated with the various concentrations of APINACA (final concentrations of 0.1−100 μM) and NADPH for 30 min at 37 °C. Next, the reaction mixtures were incubated with a seven-CYP probe substrate cocktail or bupropion for 15 min at 37 °C. […]

Sequence of CYP2C9 (P11712 whole entry): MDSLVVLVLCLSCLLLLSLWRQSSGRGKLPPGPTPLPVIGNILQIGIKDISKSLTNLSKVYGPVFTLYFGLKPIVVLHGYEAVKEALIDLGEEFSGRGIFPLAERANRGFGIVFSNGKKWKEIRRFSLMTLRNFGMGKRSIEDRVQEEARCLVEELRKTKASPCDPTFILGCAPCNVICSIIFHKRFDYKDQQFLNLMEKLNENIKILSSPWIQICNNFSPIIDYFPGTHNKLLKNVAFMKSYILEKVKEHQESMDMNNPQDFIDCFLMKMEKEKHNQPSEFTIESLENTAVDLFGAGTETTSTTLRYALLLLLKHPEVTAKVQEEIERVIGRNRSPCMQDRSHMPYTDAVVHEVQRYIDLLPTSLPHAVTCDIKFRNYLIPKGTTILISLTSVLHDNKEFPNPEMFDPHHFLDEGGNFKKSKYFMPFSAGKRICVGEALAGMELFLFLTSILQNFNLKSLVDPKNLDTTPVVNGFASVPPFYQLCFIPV
Sequence of CYP2D6 (P10635 whole entry): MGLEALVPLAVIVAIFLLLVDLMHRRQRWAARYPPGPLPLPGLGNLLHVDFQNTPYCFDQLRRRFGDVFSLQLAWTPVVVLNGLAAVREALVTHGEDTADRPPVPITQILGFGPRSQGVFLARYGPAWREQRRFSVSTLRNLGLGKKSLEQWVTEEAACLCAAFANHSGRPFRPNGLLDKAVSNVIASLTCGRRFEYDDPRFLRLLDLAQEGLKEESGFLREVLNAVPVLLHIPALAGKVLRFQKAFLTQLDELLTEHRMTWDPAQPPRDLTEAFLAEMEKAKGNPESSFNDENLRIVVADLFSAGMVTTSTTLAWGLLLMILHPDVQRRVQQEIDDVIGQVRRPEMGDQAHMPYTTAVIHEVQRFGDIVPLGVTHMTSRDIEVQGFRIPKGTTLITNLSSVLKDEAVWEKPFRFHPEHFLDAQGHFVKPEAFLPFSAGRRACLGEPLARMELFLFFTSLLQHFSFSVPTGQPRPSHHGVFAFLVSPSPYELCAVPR

SMILES: CCCCCn1nc(C(=O)NC23CC4CC(CC(C4)C2)C3)c2ccccc21 [APINACA, N-(1-adamantyl)-1-pentyl-1H-indazole-3-carboxamide]
- IC50 (OATP1B1): > 250 µM
- IC50 (OCT1): > 250 µM
- IC50 (CYP2C9; IC50 (μM) No Preincubation, 10 μM diclofenac, no preincubation): > 100 µM
- IC50 (CYP2C9; IC50 (μM) With Preincubation, 30-min preincubation with NADPH): 85 µM
- IC50 at 15 min (CYP2C9; human, microsomes, pH 7.4, IC50 (μM) With Preincubation, 30-min preincubation with NADPH): > 100 µM
- IC50 (CYP2D6): > 100 µM
- IC50 (CYP2D6; read-out: IC50 (μM) With Preincubation, CYP2D6 bufuralol 1′-hydroxylase, ultrapooled human liver microsomes, 30-min preincubation with NADPH): > 100 µM
